Test results reported in patent publication US9944598B2, “Mono- or di-substituted indole derivatives as dengue viral replication inhibitors” (priority 2014, dated 2018).

Key:
[1] = system: DENV-2 NGC-Tongalike; assay: Tetravalent RT-qPCR assay Protocol B, serotype 2; format: cell-based; settings: Dengue virus, DENV2, Vero, 96 h
Protocol: Vero cells (4×10^4) were seeded in 96-well plates. After one day, cell culture medium was replaced with 100 μL assay medium containing a 2×, 3× or 5× serial dilution of the compound (concentration range: 50 μg/mL-0.00038 μg/mL, 50 μg/mL-0.0076 μg/mL, and 50 μg/mL-0.00013 μg/mL, respectively) and 100 μL of dengue virus dilution, where a Ct of ˜20 is achieved in RTqPCR. Following a 2 hour incubation period, the cell monolayer was washed 3 times with assay medium to remove residual, non-adsorbed virus and cultures were further incubated for either 4 days (DENV-2 NGC-Tongalike) or 7 days (DENV-1 Djibouti strain D1/H/IMTSSA/98/606, DENV-3 strain H87 prototype, DENV-4 strain H241) in the presence of the inhibitor. Supernatant was harvested and viral RNA load was determined by real-time quantitative RT-PCR. The 50% effective concentration (EC50), which is defined as the compound concentration that is required to inhibit viral RNA replication by 50%, was determined using logarithmic interpolation (Tables 7 and 8).
RNA was isolated from 100 μL supernatant with the NucleoSpin 96 Virus kit (Filter Service, Düren, Germany) as described by the manufacturer. The sequences of the TaqMan primers (DENV-For, DENV-Rev; Table 5) and TaqMan probes (DENV-Probe Table 5) were selected from non-structural gene 3 (NS3) or NSS, of the respective flaviviruses using Primer Express software (version 2.0; Applied Biosystems, Lennik, Belgium). The TaqMan probe was fluorescently labelled with 6-carboxyfluorescein (FAM) at the 5′ end as the reporter dye, and with minor groove binder (MGB) at the 3′ end as the quencher (Table 5). One-step, quantitative RT-PCR was performed in a total volume of 25 μL, containing 13.9375 μL H2O, 6.25 μL master mix (Eurogentec, Seraing, Belgium), 0.375 μL forward primer, 0.375 μL reverse primer, 1 μL probe, 0.0625 μL reverse transcriptase (Eurogentec) and 3 μL sample. RT-PCR was performed using the ABI 7500 Fast Real-Time PCR System (Applied Biosystems, Branchburg, N.J., USA) using the following conditions: 30 min at 48° C. and 10 min at 95° C., followed by 40 cycles of 15 s at 95° C. and 1 min at 60° C. The data was analyzed using the ABI PRISM 7500 SDS software (version 1.3.1; Applied Biosystems). For absolute quantification, standard curves were generated using 10-fold dilutions of template preparations of known concentrations.

[2] = system: DENV-2 strain 16681; assay: Tetravalent RT-qPCR assay Protocol A, serotype 2; format: cell-based; settings: Dengue virus, DENV2, 72 h, RT-qPCR serotype 2 16681, Vero cells, 3 days
Protocol: The antiviral activity of the compounds of the invention was tested against DENV-1 strain TC974#666 (NCPV), DENV-2 strain 16681, DENV-3 strain H87 (NCPV) and DENV-4 strains H241 (NCPV) and EDEN (SG/06K2270DK1/2005; GenBank accession number QG398256) in a RT-qPCR assay. Therefore, Vero cells were infected with either DENV-1, or -2, or -3, or -4 in the presence or absence of test compounds. At day 3 post-infection, the cells were lysed and cell lysates were used to prepare cDNA of both a viral target (the 3′UTR of DENV; table 2) and a cellular reference gene (β-actin, table 2). Subsequently, a duplex real time PCR was performed on a Lightcycler480 instrument. The generated Cp value is inversely proportional to the amount of RNA expression of these targets. Inhibition of DENV replication by a test compound result in a shift of Cp's for the 3′UTR gene. On the other hand, if a test compound is toxic to the cells, a similar effect on β-actin expression will be observed. The comparative ΔΔCp method is used to calculate EC50, which is based on the relative gene expression of the target gene (3′UTR) normalized with the cellular housekeeping gene (β-actin). In addition, CC50 values were determined based on the Cp values acquired for the housekeeping gene β-actin.
The culture medium consisted of minimal essential medium supplemented with 2% of heat-inactivated fetal calf serum, 0.04% gentamycin (50 mg/mL) and 2 mM of L-glutamine. Vero cells, obtained from ECACC, were suspended in culture medium and 75 μL/well was added in 96-well plates (10000 cells/well), which already contain the antiviral compounds. Typically, these plates contain a 4-fold serial dilution of 9 dilution steps of the test compound at 200 times the final concentration in 100% DMSO (500 nL; final concentration range: 25 μM-0.00038 μM). In addition, each plate contains wells which are assigned as virus controls (containing cells and virus in the absence of compound) and cell controls (containing cells in the absence of virus and compound). Once the cells were added in the plates, the plates were incubated in a fully humidified incubator (37° C., 5% CO2) until the next day. Then, DENV-1 strain TC974#666, DENV-2 strain 16681, DENV-3 strain H87 or DENV-4 strains H241 or EDEN were added. […] In parallel, 25 μL of culture medium was added to the cell controls. Next, the plates were incubated for 3 days in a fully humidified incubator (37° C., 5% CO2). After 3 days, the supernatant was removed from the wells and the cells were washed twice with ice-cold PBS (˜100 μL). The cell pellets within the 96-well plates were stored at −80° C. for at least 1 day. Next, RNA was extracted using the Cells-to-CT™ lysis kit, according to the manufacture's guideline (Applied Biosystems). The cell lysates can be stored at −80° C. or immediately used in the reverse transcription step.
In preparation of the reverse transcription step, mix A (table 3A) was prepared and 7.57 μL/well was dispensed in a 96-well plate. After addition of 5 μL of the cell lysates, a five minute denaturation step at 75° C. was performed (table 3B). Afterwards, 7.43 μL of mix B was added (table 3C) and the reverse transcription step was initiated (table 3D) to generate cDNA.
Finally, a RT-qPCR mix was prepared, mix C (table 4A), dispensed in 96-well LightCycler qPCR plates to which 3 μL of cDNA was added and the qPCR was performed according to the conditions in table 4B on a LightCycler 480.
Using the LightCycler software and an in-house LIMS system, dose response curves for each compound were calculated and the half maximal effective concentration (EC50) and the half maximal cytotoxic concentration (CC50) were determined (Tables 6-9).

Structure (SMILES) | EC50 [1] | EC50 [2]
COc1cc(NC(C(=O)c2c[nH]c3cc(OC)ccc23)c2ccc(Cl)cc2OC)cc(OCCO)c1 (single isomer, unassigned) [Compound 5A, 2-(4-chloro-2-methoxyphenyl)-2-((3-(2-hydroxyethoxy)-5-methoxyphenyl)amino)-1-(6-methoxy-1H-indol-3-yl)ethanone] | < 0.4 nM | 0.5 nM
COc1cc(NC(C(=O)c2c[nH]c3c(C)c(Cl)ccc23)c2ccc(Cl)cc2OC)cc(OCCO)c1 (single isomer, unassigned) [Compound 3A, 2-(4-chloro-2-methoxyphenyl)-1-(6-chloro-7-methyl-1H-indol-3-yl)-2-((3-(2-hydroxyethoxy)-5-methoxyphenyl)amino)ethanone] | < 0.33 nM | 0.24 nM
COc1cc(NC(C(=O)c2c[nH]c3cc(F)c(F)cc23)c2ccc(Cl)cc2OC)cc(OCCO)c1 (single isomer, unassigned) [Compound 9A, 2-(4-chloro-2-methoxyphenyl)-1-(5,6-difluoro-1H-indol-3-yl)-2-((3-(2-hydroxyethoxy)-5-methoxyphenyl)amino)ethanone] | < 0.31 nM | 0.79 nM
COc1cc(NC(C(=O)c2c[nH]c3cc(F)ccc23)c2ccc(Cl)cc2OC)cc(OCCO)c1 (single isomer, unassigned) [Compound 1A, 2-(4-chloro-2-methoxyphenyl)-1-(6-fluoro-1H-indol-3-yl)-2-((3-(2-hydroxyethoxy)-5-methoxyphenyl)amino)ethanone] | 0.38 nM | 1.1 nM
COc1cc(NC(C(=O)c2c[nH]c3c(C)cc(F)cc23)c2ccc(Cl)cc2OC)cc(OCCO)c1 (single isomer, unassigned) [Compound 8A, 2-(4-chloro-2-methoxyphenyl)-1-(5-fluoro-7-methyl-1H-indol-3-yl)-2-((3-(2-hydroxyethoxy)-5-methoxyphenyl)amino)ethanone] | 1.4 nM | 1.2 nM
COc1cc(NC(C(=O)c2c[nH]c3c(C)c(F)ccc23)c2ccc(Cl)cc2OC)cc(OCCO)c1 (single isomer, unassigned) [Compound 2A, 2-(4-chloro-2-methoxyphenyl)-1-(6-fluoro-7-methyl-1H-indol-3-yl)-2-((3-(2-hydroxyethoxy)-5-methoxyphenyl)amino)ethanone] | 0.4 nM | 0.85 nM
COc1cc(NC(C(=O)c2c[nH]c3cc(OC)c(F)cc23)c2ccc(Cl)cc2OC)cc(OCCO)c1 (single isomer, unassigned) [Compound 7A, 2-(4-chloro-2-methoxyphenyl)-1-(5-fluoro-6-methoxy-1H-indol-3-yl)-2-((3-(2-hydroxyethoxy)-5-methoxyphenyl)amino)ethanone] | 0.27 nM | 0.91 nM
COc1cc(NC(C(=O)c2c[nH]c3cc(OC)c(C)cc23)c2ccc(Cl)cc2OC)cc(OCCO)c1 (single isomer, unassigned) [Compound 6A, 2-(4-chloro-2-methoxyphenyl)-2-((3-(2-hydroxyethoxy)-5-methoxyphenyl)amino)-1-(6-methoxy-5-methyl-1H-indol-3-yl)ethanone] | 0.4 nM | 0.54 nM
COc1cc(NC(C(=O)c2c[nH]c3cc(Cl)ccc23)c2ccc(Cl)cc2OC)cc(OCCO)c1 (single isomer, unassigned) [Compound 4A, 1-(6-chloro-1H-indol-3-yl)-2-(4-chloro-2-methoxyphenyl)-2-((3-(2-hydroxyethoxy)-5-methoxyphenyl)amino)ethanone] | < 0.34 nM | 0.44 nM
COc1cc(NC(C(=O)c2c[nH]c3c(F)cc(C)cc23)c2ccc(Cl)cc2OC)cc(OCCO)c1 (single isomer, unassigned) [Compound 10A, 2-(4-chloro-2-methoxyphenyl)-1-(7-fluoro-5-methyl-1H-indol-3-yl)-2-((3-(2-hydroxyethoxy)-5-methoxyphenyl)amino)ethanone] | 1.4 nM | 3.2 nM
COc1cc(NC(C(=O)c2c[nH]c3c(F)c(F)ccc23)c2ccc(Cl)cc2OC)cc(OCCO)c1 (single isomer, unassigned) [Compound 11B, 2-(4-chloro-2-methoxyphenyl)-1-(6,7-difluoro-1H-indol-3-yl)-2-((3-(2-hydroxyethoxy)-5-methoxyphenyl)amino)ethanone] | 0.27 nM | 1 nM
